Measurements taken from patent US3996344A, “Phenethylamine antigenic conjugates, their preparation, antibodies and use” (Biological Developments, Inc., priority 1974, dated 1976).

Tested on: antiserum (antibody raised in rabbits to the antigen of Example I, N-TFA-p-aminoamphetamine coupled to BSA)
Test: Radioimmune assay for amphetamine: competitive inhibition of 3H-d-amphetamine binding to, and cross-reactivity of, antiserum raised to the antigen of Example I
Details: for Percent Cross-Reactivity: method of Abraham, relative quantity that produces 50% inhibition x 100, d-amphetamine = 100; for Percent Inhibition of Binding 3H-d-amphetamine: 3H-d-amphetamine 137 picograms, 2 hours, 4° C

With CN[C@@H](C)Cc1ccccc1 [methadrine] the “Percent Cross-Reactivity” value was 0.45%.
NCCc1ccc(O)cc1 [tyramine] was tested, and the “Percent Cross-Reactivity” value was 3.4%.
With C[C@H](N)Cc1ccccc1 [d-amphetamine] the “Percent Inhibition of Binding 3H-d-amphetamine” value (shortened to “Percent Inhibition”) (250 picograms of unlabeled amphetamine) was 12%, the “Percent Inhibition” value (500 picograms of unlabeled amphetamine) was 22% and the “Percent Inhibition” value (1,000 picograms of unlabeled amphetamine) was 33.5%. For the same molecule, the “Percent Inhibition” value (10,000 picograms of unlabeled amphetamine) was 83.0% and the “Percent Cross-Reactivity” value was 100%.
CNCC(O)c1ccc(O)c(OC)c1 (stereo not shown) [metanephrine] was tested, and the “Percent Cross-Reactivity” value was < 0.0125%.
With COc1cc(C(O)CN)ccc1O (stereo not shown) [normetanephrine] the “Percent Cross-Reactivity” value was < 0.0125%.
With C[C@@H](N)Cc1ccccc1 [1-amphetamine] the “Percent Cross-Reactivity” value was 1.45%.
